Entries after “also recorded” stand apart in the source; their conditions may differ.
Columns and labels:
H9 (WA09) ESCs = assay: ESC expansion in PSC basal medium with or without CHIR99021 vs mTeSR1; assay type: cell-based, human; conditions: 10 μM Y-27632 at passaging; Day 5
Method: PSC expansion using the PSC media formulations provided herein was compared to expansion in commercially available media. H9 (WA09) ESCs were expanded in PSC basal medium in the absence of CHIR99021, PSC basal medium in the presence of CHIR99021, and in the mTeSR1 media formulation (Stem Cell Technologies). PSCs were passaged using StemPro™ Accutase™ cell dissociation reagent and grown in 6 well non-tissue culture treated plates seeded at 150,000 viable cells/mL in 2 mL of media and agitated at 70 RPM on an orbital shaker platform. […] Cell expansion was assessed via viable cell counts on Day 5. Cultures were fed with 50% medium replacement performed daily.

[1] = tested on: Gibco Human Episomal iPSCs and WA09 ESCs; assay: DOE of small molecules on PSC expansion in suspension culture (viable cell counts Day 5); assay type: cell-based; conditions: for fold-expansion of PSCs: added to base PSC medium+1× RevitaCell, 24 well, 120 RPM, viable cell counts Day 5
Method: Design of Experiment (DOE) was conducted using Gibco Human Episomal induced pluripotent stem cells (iPSCs) and WA09 embryonic stem cells (ESCs) to determine the impact of the small molecules. These PSCs were seeded in base PSC medium+1× RevitaCell™ Supplement and grown in a 24 well non-tissue culture treated plate at 120 RPM on an orbital shaker platform and cell expansion was assessed via viable cell counts on Day 5. […] FIG. 1 depicts results from the assessment of various concentrations of an anti-clumping agent and individual small molecules CHIR99021, PD0325901, SP00125, BIRD796, and Go6983on the expansion of iPSCs and WA09 hESCs.

[2] = tested on: Gibco Human Episomal iPSCs and WA09 ESCs; assay: Expansion and spheroid morphology with small molecules added continuously vs Day 1 only; assay type: cell-based
Method: Cell morphology was assessed following exposure to formulations containing 3 μM CHIR99021 in continuous culture media vs exposure at day 1 only. iPSCs were grown in a 24 well non-tissue culture treated plate at 120 RPM on an orbital shaker platform and cell morphology was assessed on Day 5. In this experiment, the small molecules were added on Day 1 only or throughout the culture period. […] Cell expansion and morphology were assessed for PSC suspension cultures following incubation with the base PSC media formulation containing CHIR99021 alone or in combination with one or more of the other small molecules and/or anti-clumping agent. PSCs were grown in a 24 well non-tissue culture treated plate at 120 RPM on an orbital shaker platform and cell morphology was examined and cell expansion was assessed via viable cell counts on Day 5. In this experiment, the small molecules were either added on Day 1 only or throughout the culture period. In these figures, the x-axis indicates various formulations tested and the y-axis indicates the fold-change in viable cell counts from day 1 to day 5 of culture. Micrographs of the cell cultures at day 5 under certain conditions are also shown. […] It was surprising that the increase in fold-change could be accomplished through inclusion of CHIR99021 at the time of passage only (e.g., Day 1 only).

[3] = tested on: Gibco Human Episomal iPSCs; assay: Optimal range of CHIR99021 in 100 mL PBS bioreactors: fold-change and viability; assay type: cell-based
Method: The optimal range of CHIR99021 for use in the PSC Medium formulation if included in the formulation for everyday feeds was assessed. Gibco Human Episomal iPSCs were expanded in 100 mL PBS bioreactors in duplicate and cell counts were performed at the end of each passage. […] The sugar source (glucose/galactose) and the concentration of CHIR99021 was varied. The feed schedule was also modified to include every day vs. every-other-day feed schedules. Fold-change upon expansion and viability were assessed for each condition. CHIR99021 concentrations as low as 0.6 μM supported optimal cell expansion on an every-day medium exchange feed schedule (FIG. 11A) and viability on an every-day and every-other-day medium exchange feed schedule (FIG. 11B). […] (FIGS. 11A-11B).

iPSCs = assay: DOE on balance of CHIR99021, Go6983 and BSA: spheroid formation, fold-expansion, Oct4 pluripotency; assay type: cell-based, human; conditions: for concentration giving maximal fold change (DOE prediction profiler): iPSCs in suspension, preference stated across WA09 ESCs and Gibco Human Episomal iPSCs
Method: DOE was conducted to assess the balance of CHIR99021, Go6983 (a broad-spectrum PKC inhibitor), and BSA in achieving optimum fold-expansion, while also providing support of maintenance of pluripotency. […] Variation in spheroid size resulting from the various culture conditions was assess by phase contrast imaging. […] At day 5 of culture spheroids were dissociated using StemPro Accutase and replated into 2D format for 24 hours. After 24 hours of growth, the cells were fixed, permeabilized and stained with DAPI and for Oct4 expression to determine the pluripotency of the dissociated cells. The number of cells expressing Oct4 was compared to the total number of cells expressing DAPI, enabling an estimation of the percentage of pluripotent stem cells obtained from the spheroids.
Various concentrations of Pinacidil, CHIR99021, Go6893, and BSA, with or without anti-clumping agent, was assessed for achieving fold-expansion of iPSCs in suspension culture. […] Overall, CHIR99021 facilitates spheroid formation and a balance of albumin and CHIR99021 maintains appropriate spheroid size.

[4] = tested on: Gibco Human Episomal iPSCs; assay: ROCKi comparison (Chroman I, Pinacidil, RevitaCell vs Y-27632) in PSC medium; assay type: cell-based; conditions: 1× RevitaCell, 60 μM Pinacidil; for spheroid morphology (size): 50 nM Chroman I, 10 μM Y-27632; for spheroid expansion: Chroman I vs 10 μM Y-27632, CHIR99021 containing PSC medium, 5 days
Method: Gibco Human Episomal iPSCs were expanded in non-tissue culture treated 6 well plates on an orbital shaker set to 70 RPM. The cells were passaged from 2D cultures using StemPro Accutase and grown in PSC Medium. Cells were seeded on Day 0 at a concentration of 150,000 cells/mL in a 2 mL volume, with a ROCK inhibitor added to the culture. […] Spheroids were grown over 5 days, with 50% medium replacement performed daily.

[5] = tested on: Gibco Human Episomal iPSCs; assay: ROCK inhibitor pairing with PSC base medium formulation; assay type: cell-based; conditions: ROCKi used at time of passaging
Method: Following 5-day growth with 50% medium exchange daily and constant agitation on an orbital shake platform, fold-change upon expansion was assessed.

[6] = tested on: Gibco Human Episomal iPSCs; assay: Spheroid growth and Oct4 pluripotency by seeding supplement (RevitaCell, Y-27632, Cellartis Supplement 3); assay type: cell-based
Method: PSC fold-expansion and pluripotency maintenance was compared for spheroid cultures seeded with a ROCK inhibitor or with the Cellartis Supplement 3 of the commercially available Cellartis Def-CS 3D medium system and grown in the complete PSC medium provided herein. Gibco Human Episomal iPSCs were expanded in 24-well non tissue culture treated plates at 120 RPM on an orbital shaker platform in the complete PSC medium to determine whether the type of ROCKi or Supplement selected for use affects the overall spheroid growth. […] Overall spheroid growth and expansion was assessed after the cells had grown for 5 days in the 24 well plate (FIG. 15A). The pluripotency of the spheroids was also assessed after the cells had grown for 5 days in the 24 well plate (FIG. 15B). To assess pluripotency, spheroids were dissociated using StemPro Accutase and replated into 2D format for 24 hours. After 24 hours of growth, the cells were fixed, permeabilized and stained with DAPI and for Oct4 expression to determine the pluripotency of the dissociated cells. The number of cells expressing Oct4 was compared to the total number of cells expressing DAPI, enabling an estimation of the percentage of pluripotent stem cells obtained from the spheroids.

## Cc1cnc(-c2cnc(NCCNc3ccc(C#N)cn3)nc2-c2ccc(Cl)cc2Cl)[nH]1 [CHIR99021, 6-[[2-[[4-(2,4-dichlorophenyl)-5-(5-methyl-1H-imidazol-2-yl)-2-pyrimidinyl]amino]ethyl]amino]-3-pyridinecarbonitrile]
H9 (WA09) ESCs
  fold-expansion compared to PSC basal medium without CHIR99021: enhances fold-expansion
  fold-expansion compared to mTeSR1: significantly enhanced fold-expansion
[1]; CHIR99021 alone in base PSC medium formulation
  cell nucleation: assisted in cell nucleation
[1]
  fold-expansion of PSCs: significant improvement in fold-expansion
[2]; 3 μM CHIR99021 included on a continual basis
  spheroid morphology Day 5: aberrant differentiation was noted for some conditions
[2]; CHIR99021 at various concentrations only at time of passaging
  fold-expansion: effective at increasing fold-expansion
[2]; CHIR99021 included only at time of passaging (Day 1)
  spheroid morphology Day 5: typical smooth edges and spheroid morphology; also recorded: maintain normal spheroidal morphology
[3]; continuously in medium, every-day medium exchange
  CHIR99021 concentration supporting optimal cell expansion: ≥ 0.6 µM
[3]; every-day and every-other-day medium exchange
  CHIR99021 concentration supporting viability: ≥ 0.6 µM
[3]; fed on every-other-day cadence
  CHIR99021 concentration supporting optimal fold-expansion: up to 1.5 μM
iPSCs
  concentration giving maximal fold change (DOE prediction profiler): intermediate concentration
iPSCs; seeded with 10 μM Y-27632, 3 μM CHIR99021 present or absent
  spheroid formation: aids in spheroid formation

## COc1ccc2c(c1)C[C@H](C(=O)Nc1ccc(-c3cn[nH]c3)cc1OCCN(C)C)CO2 [Chroman I]
[4]
  spheroid morphology (size): morphologically larger
  spheroid expansion: perform similarly

## COc1ccc2c(c1)c(C1=C(c3c[nH]c4ccccc34)C(=O)NC1=O)cn2CCCN(C)C [Go6983]
iPSCs
  concentration giving maximal fold change (DOE prediction profiler): exclusion of Go6983 and anti-clump agent is preferred

## O=C(NOC[C@H](O)CO)c1ccc(F)c(F)c1Nc1ccc(I)cc1F [PD0325901]
[1]
  fold-expansion of PSCs: detrimental to overall PSC expansion

## CC(N/C(=N\C#N)Nc1ccncc1)C(C)(C)C (stereo not drawn) [Pinacidil]
[4]
  spheroid morphology (size): morphologically smaller
  spheroid expansion: inferior to 10 μM Y-27632

## O=C1c2ccccc2-c2n[nH]c3cccc1c23 [SP00125]
[1]
  fold-expansion of PSCs: detrimental to overall PSC expansion

## O=C(NCc1ccccc1)c1csc(Nc2ccncn2)n1 [Thiazovivin]
[5]
  spheroid size relative to Pinacidil: Larger spheroids

## C[C@@H](N)[C@H]1CC[C@H](C(=O)Nc2ccncc2)CC1 [Y-27632, (R)-(+)-trans-4-(1-aminoethyl)-N-(4-pyridyl)cyclohexanecarboxamide]
[4]
  spheroid morphology (size): morphologically larger
  spheroid expansion: optimal performance
[6]; added on day 1 in complete PSC medium, 24 well, 120 RPM
  spheroid size and morphology on Day 5: most efficient with larger spheroids
[6]; after 5 days, replated 24 hours
  maintenance of pluripotency (Oct4 vs DAPI): maintain high levels of pluripotent stem cells
